{"source": "patent US20240294498A1", "about": "“FACTOR XIIA INHIBITORS” (Lunac Therapeutics Ltd, priority 2021, published 2024)", "format_in_all_cases": "biochemical", "key": {"FXa": {"molecular_target": "FXa (Homo sapiens, UniProt P00742)", "sequence (P00742 235-488 limits assumed)": "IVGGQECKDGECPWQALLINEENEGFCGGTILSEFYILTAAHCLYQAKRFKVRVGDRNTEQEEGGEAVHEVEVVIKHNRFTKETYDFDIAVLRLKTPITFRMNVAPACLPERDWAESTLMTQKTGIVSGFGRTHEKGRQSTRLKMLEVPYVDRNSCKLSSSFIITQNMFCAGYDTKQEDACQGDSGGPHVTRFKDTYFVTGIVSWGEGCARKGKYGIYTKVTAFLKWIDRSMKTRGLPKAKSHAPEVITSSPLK", "sequence (P00742 41-179 partner limits assumed)": "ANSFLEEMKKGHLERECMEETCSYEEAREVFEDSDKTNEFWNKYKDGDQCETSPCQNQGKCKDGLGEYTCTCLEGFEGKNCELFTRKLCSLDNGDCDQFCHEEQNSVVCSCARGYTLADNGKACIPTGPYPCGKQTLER", "assay": "Determination of selectivity: FXa inhibition (chromogenic substrate S2765)", "details": "fold selectivity for FXIIa over FXa (human); category", "protocol": "(§1) The activities of the compounds of the invention have been determined in vitro using the following assays protocols for the screening of activity of FXIIa and other proteases. Each of these assays were performed in a purified system employing the use of chromogenic assays in microplate plate wells. Chromogenic peptide substrates mimicking natural protein substrates are attached via an amide bond to a chromogenic group. Paranitroaniline (pNA) is released from the peptide following catalyses by the proteolytic enzyme; the absorbance increases and can be monitored at 405 nm.\n(§2) All compounds were dissolved in 100% (v/v) DMSO to a stock concentration of 10 mM, the highest concentration of compound used in each assay is 500 μM. The final concentrations of DMSO were 5% (v/v) in 50 mM Tris 137 mM NaCl pH 7.4. Where no test compound was added a final concentration of 5% DMSO was employed.\n(§3) To determine selectivity of test compounds, these test compounds were assayed for inhibitory activity against other serine proteases including FXa and thrombin. Essentially compounds at increasing concentrations were incubated with each enzyme: FXa (5 nM) and thrombin (5 nM), for 10 mins at 37° C. followed by the appropriate chromogenic substrate, S2765 (Chromogenix) and GPR (Bachem) respectively in 50 mM Tris, 137 mM NaCl, pH 7.4. Substrates were used at a concentration equal to the appropriate experimentally derived KM. Kinetic readings at 405 nm were monitored every 12 secs for a total duration of 3 hours at 37° C. Gradients of initial rates were determined and employed to calculate IC50 values. Values of IC50 were converted to Ki values based on the formula:\n(§4) Ki═IC50/(1+[Substrate]/Km)\n(§5) Where [Substrate] denotes the concentration of substrate used in the assay and Km is the determined value of each enzyme with its own substrate.\nThe fold selectivity for FXIIa over FXa for the compounds of the invention has been categorised based on the fold selectivity values, the categories being “o”, “oo” and “ooo”. The category “o” refers to fold selectivity values less than 10 (e.g. a fold selectivity value of less than 10 and greater than 1). The category “oo” refers to a fold selectivity value of 10 to 100. The category “ooo” refers to fold selectivity values greater than 100."}, "thrombin": {"molecular_target": "T1, thrombin (Homo sapiens, UniProt P00734)", "T1 construct": "FXa (5 nM) and thrombin (5 nM)", "assay": "Determination of selectivity: thrombin inhibition (chromogenic substrate GPR)", "details": "fold selectivity for FXIIa over thrombin (human); category", "protocol": "as §1, §2, §3, §4, §5\nThe fold selectivity for FXIIa over thrombin for the compounds of the invention has been categorised based on the fold selectivity values, the categories being “+”, “++” and “+++”. The category “+” refers to fold selectivity values less than 10 (e.g. a fold selectivity value of less than 10 and greater than 1). The category “++” refers to a fold selectivity value of 10 to 100. The category “+++” refers to fold selectivity values greater than 100."}, "FXIIa": {"molecular_target": "T2, FXIIa (Homo sapiens, UniProt P00748)", "T2 construct": "FXIIa alpha", "T2 sequence (P00748 373-615 limits assumed)": "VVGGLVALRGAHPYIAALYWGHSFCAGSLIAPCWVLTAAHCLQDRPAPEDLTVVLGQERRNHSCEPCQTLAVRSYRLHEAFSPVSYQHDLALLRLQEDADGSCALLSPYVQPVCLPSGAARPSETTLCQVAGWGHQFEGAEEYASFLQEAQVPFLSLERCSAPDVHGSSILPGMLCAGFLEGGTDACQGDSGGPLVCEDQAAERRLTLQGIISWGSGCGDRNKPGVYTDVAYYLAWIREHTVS", "T2 sequence (P00748 20-372 partner limits assumed)": "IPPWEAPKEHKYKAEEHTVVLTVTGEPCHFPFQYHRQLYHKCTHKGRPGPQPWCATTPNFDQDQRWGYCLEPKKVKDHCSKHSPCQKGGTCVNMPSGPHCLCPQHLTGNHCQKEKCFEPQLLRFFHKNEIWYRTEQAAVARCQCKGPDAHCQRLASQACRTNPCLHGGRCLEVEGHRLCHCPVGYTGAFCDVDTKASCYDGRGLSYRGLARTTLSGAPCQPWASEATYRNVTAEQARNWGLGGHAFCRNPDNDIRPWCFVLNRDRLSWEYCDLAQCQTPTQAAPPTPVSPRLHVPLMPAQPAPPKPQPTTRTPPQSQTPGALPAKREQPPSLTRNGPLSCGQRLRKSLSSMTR", "assay": "Determination of Factor XIIa inhibition (chromogenic substrate S-2302)", "details": "human FXIIa alpha, Ki category", "protocol": "as §1, §2\nFactor XIIa activity was measured using a chromogenic substrate S-2302 (Chromogenix). Various concentrations of compound were incubated with 10 nM of FXIIa and incubated at 37° C. for 10 minutes in 50 mM Tris, 137 mM NaCl, pH 7.4, prior to the addition of the chromogenic substrate S-2302 at a concentration equal the to the experimentally derived KM. Kinetic readings at 405 nm were monitored every 12 secs for a total duration of 3 hours at 37° C. Gradients of initial rates were determined and employed to calculate IC50 values.\nThe activity of the compounds of the invention has been categorised based on the Ki values, the categories being “†”, “*”, “**” and “***”. […] The category “**” refers to compounds with a Ki value of 0.2 μM to 0.8 μM.\nas §4, §5"}}}
{"smiles": "Cc1ccc(C[C@@H]2C[C@@H](C(=O)NCC3Cc4ccncc4C3)N(C(=O)[C@@H]3NCCC[C@@H]3C(=O)N3CCCC3)C2)cc1", "note": "(stereo partly drawn) [Example M05764, (2S,4R)-N-((6,7-dihydro-5H-cyclopenta[c]pyridin-6-yl)methyl)-4-(4-methylbenzyl)-1-((2R,3S)-3-(pyrrolidine-1-carbonyl)piperidine-2-carbonyl)pyrrolidine-2-carboxamide]", "values": [{"measurement": "FXa (human)/FXIIa alpha (human)", "setting": "FXa", "result": "∘∘∘"}, {"measurement": "Thrombin (human)/FXIIa alpha (human)", "setting": "thrombin", "result": "+++ (fold selectivity values greater than 100)"}, {"measurement": "Ki", "setting": "FXIIa", "result": "< 200", "unit": "nM"}]}
{"smiles": "Cn1ncc2cc(CNC(=O)[C@@H]3C[C@@H](Cc4ccn(C5CC5)n4)CN3C(=O)[C@@H]3NCCC[C@@H]3C(=O)N3CCCC3)ccc21", "note": "[Example M05983, (2S,4S)-4-((1-cyclopropyl-1H-pyrazol-3-yl)methyl)-N-((1-methyl-1H-indazol-5-yl)methyl)-1-((2R,3S)-3-(pyrrolidine-1-carbonyl)piperidine-2-carbonyl)pyrrolidine-2-carboxamide]", "values": [{"measurement": "FXa (human)/FXIIa alpha (human)", "setting": "FXa", "result": "∘∘∘"}, {"measurement": "Ki", "setting": "FXIIa", "result": "800 to 5000", "unit": "nM"}]}
{"smiles": "Cc1ccc(C[C@@H]2C[C@@H](C(=O)NCc3ccc4c(cnn4C)c3)N(C(=O)[C@@H]3NCCC[C@@H]3C(=O)N3CCCC3)C2)s1", "note": "[Example M06030, (2S,4S)-N-((1-methyl-1H-indazol-5-yl)methyl)-4-((5-methylthiophen-2-yl)methyl)-1-((2R,3S)-3-(pyrrolidine-1-carbonyl)piperidine-2-carbonyl)pyrrolidine-2-carboxamide]", "values": [{"measurement": "FXa (human)/FXIIa alpha (human)", "setting": "FXa", "result": "∘∘∘"}, {"measurement": "Thrombin (human)/FXIIa alpha (human)", "setting": "thrombin", "result": "++ (a fold selectivity value of 10 to 100)"}, {"measurement": "Ki", "setting": "FXIIa", "result": "200 to 800", "unit": "nM"}]}
{"smiles": "Cn1nnc2cc(CNC(=O)[C@@H]3C[C@@H](Cc4ccc5ccccc5c4)CN3C(=O)[C@@H]3NCCC[C@@H]3C(=O)N3CCCC3)ccc21", "note": "[Example M05881, (2S,4R)-N-((1-methyl-1H-benzo[d][1,2,3]triazol-5-yl)methyl)-4-(naphthalen-2-ylmethyl)-1-((2R,3S)-3-(pyrrolidine-1-carbonyl)piperidine-2-carbonyl)pyrrolidine-2-carboxamide]", "values": [{"measurement": "FXa (human)/FXIIa alpha (human)", "setting": "FXa", "result": "∘∘∘"}, {"measurement": "Thrombin (human)/FXIIa alpha (human)", "setting": "thrombin", "result": "+++ (fold selectivity values greater than 100)"}, {"measurement": "Ki", "setting": "FXIIa", "result": "< 200", "unit": "nM"}]}
{"smiles": "Cc1ccc(C[C@@H]2C[C@@H](C(=O)NCc3ccc4c(cnn4C)c3)N(C(=O)[C@@H]3NCCC[C@@H]3C(=O)N(C)CCN3CC[C@H](F)C3)C2)cc1", "note": "[Example M06109, (2R,3S)-N-(2-((S)-3-fluoropyrrolidin-1-yl)ethyl)-N-methyl-2-((2S,4R)-2-(((1-methyl-1H-indazol-5-yl)methyl)carbamoyl)-4-(4-methylbenzyl)pyrrolidine-1-carbonyl)piperidine-3-carboxamide]", "values": [{"measurement": "FXa (human)/FXIIa alpha (human)", "setting": "FXa", "result": "∘∘∘"}, {"measurement": "Thrombin (human)/FXIIa alpha (human)", "setting": "thrombin", "result": "+++ (fold selectivity values greater than 100)"}, {"measurement": "Ki", "setting": "FXIIa", "result": "< 200", "unit": "nM"}]}
{"smiles": "Cc1ccc(C[C@@H]2C[C@@H](C(=O)NCc3ccc4c(cnn4C)c3)N(C(=O)[C@@H]3NCCC[C@@H]3C(=O)N3CCNCC3)C2)cc1", "note": "[Example M05754, (2S,4R)-N-((1-methyl-1H-indazol-5-yl)methyl)-4-(4-methylbenzyl)-1-((2R,3S)-3-(piperazine-1-carbonyl)piperidine-2-carbonyl)pyrrolidine-2-carboxamide]", "values": [{"measurement": "FXa (human)/FXIIa alpha (human)", "setting": "FXa", "result": "∘∘∘"}, {"measurement": "Thrombin (human)/FXIIa alpha (human)", "setting": "thrombin", "result": "+++ (fold selectivity values greater than 100)"}, {"measurement": "Ki", "setting": "FXIIa", "result": "200 to 800", "unit": "nM"}]}
{"smiles": "Cc1ccc(C[C@@H]2C[C@@H](C(=O)NCc3ccc4c(cnn4C)c3)N(C(=O)[C@@H]3NCCC[C@@H]3C(=O)N3CCCC3)C2)cc1", "note": "[Example M05675, (2S,4R)-N-((1-methyl-1H-indazol-5-yl)methyl)-4-(4-methylbenzyl)-1-((2R,3S)-3-(pyrrolidine-1-carbonyl)piperidine-2-carbonyl)pyrrolidine-2-carboxamide]", "values": [{"measurement": "FXa (human)/FXIIa alpha (human)", "setting": "FXa", "result": "∘∘∘"}, {"measurement": "Thrombin (human)/FXIIa alpha (human)", "setting": "thrombin", "result": "+++ (fold selectivity values greater than 100)"}, {"measurement": "Ki", "setting": "FXIIa", "result": "< 200", "unit": "nM"}]}
{"smiles": "Cc1ccc(C[C@@H]2C[C@@H](C(=O)NCc3ccc4c(cnn4C)c3)N(C(=O)[C@H]3[C@@H](C(=O)N4CCCC4)CCCN3C)C2)cc1", "note": "[Example M05757, (2S,4R)—N-[(1-methylindazol-5-yl)methyl]-1-[(2R,3S)-1-methyl-3-(pyrrolidine-1-carbonyl)piperidine-2-carbonyl]-4-(p-tolylmethyl)pyrrolidine-2-carboxamide]", "values": [{"measurement": "FXa (human)/FXIIa alpha (human)", "setting": "FXa", "result": "∘∘∘"}, {"measurement": "Thrombin (human)/FXIIa alpha (human)", "setting": "thrombin", "result": "+++ (fold selectivity values greater than 100)"}, {"measurement": "Ki", "setting": "FXIIa", "result": "< 200", "unit": "nM"}]}
{"smiles": "Cn1ncc2cc(CNC(=O)[C@@H]3C[C@@H](Cc4ccncc4)CN3C(=O)[C@@H]3NCCC[C@@H]3C(=O)N3CCCC3)ccc21", "note": "[Example M05811, (2S,4R)-N-((1-methyl-1H-indazol-5-yl)methyl)-4-(pyridin-4-ylmethyl)-1-((2R,3S)-3-(pyrrolidine-1-carbonyl)piperidine-2-carbonyl)pyrrolidine-2-carboxamide]", "values": [{"measurement": "FXa (human)/FXIIa alpha (human)", "setting": "FXa", "result": "∘∘∘"}, {"measurement": "Thrombin (human)/FXIIa alpha (human)", "setting": "thrombin", "result": "++ (a fold selectivity value of 10 to 100)"}, {"measurement": "Ki", "setting": "FXIIa", "result": "800 to 5000", "unit": "nM"}]}
{"smiles": "Cn1nnc2cc(CNC(=O)[C@@H]3C[C@@H](Cc4ccc(C5(F)CC5)cc4)CN3C(=O)[C@@H]3NCCC[C@@H]3C(=O)N3CCCC3)ccc21", "note": "[Example M06068, (2S,4R)-4-[[4-(1-fluorocyclopropyl)phenyl]methyl]-N-[(1-methylbenzotriazol-5-yl)methyl]-1-[(2R,3S)-3-(pyrrolidine-1-carbonyl)piperidine-2-carbonyl]pyrrolidine-2-carboxamide]", "values": [{"measurement": "FXa (human)/FXIIa alpha (human)", "setting": "FXa", "result": "∘∘∘"}, {"measurement": "Ki", "setting": "FXIIa", "result": "800 to 5000", "unit": "nM"}]}
{"smiles": "Cn1nnc2cc(CNC(=O)[C@@H]3C[C@@H](Cc4ccc(C5CC5)nc4)CN3C(=O)[C@@H]3NCCC[C@@H]3C(=O)N3CCC[C@@H]3C(F)(F)F)ccc21", "note": "[Example M06070, (2S,4R)-4-[(6-cyclopropyl-3-pyridyl)methyl]-N-[(1-methylbenzotriazol-5-yl)methyl]-1-[(2R,3S)-3-[(2R)-2-(trifluoromethyl)pyrrolidine-1-carbonyl]piperidine-2-carbonyl]pyrrolidine-2-carboxamide]", "values": [{"measurement": "FXa (human)/FXIIa alpha (human)", "setting": "FXa", "result": "∘∘∘"}, {"measurement": "Ki", "setting": "FXIIa", "result": "200 to 800", "unit": "nM"}]}
{"smiles": "Cc1ccc(C[C@@H]2C[C@@H](C(=O)NCCCc3cnn(C)c3)N(C(=O)[C@@H]3NCCC[C@@H]3C(=O)N3CCC[C@@H]3C(F)(F)F)C2)cc1", "note": "[Example M06077]", "values": [{"measurement": "Ki", "setting": "FXIIa", "result": "800 to 5000", "unit": "nM"}]}
{"smiles": "Cc1ccc(C[C@@H]2C[C@@H](C(=O)NCc3ccn4c(C(F)F)nnc4c3)N(C(=O)[C@@H]3NCCC[C@@H]3C(=O)N3CCCC3)C2)cc1", "note": "[Example M05985, (2S,4R)-N-[[3-(difluoromethyl)-[1,2,4]triazolo[4,3-a]pyridin-7-yl]methyl]-4-(p-tolylmethyl)-1-[(2R,3S)-3-(pyrrolidine-1-carbonyl)piperidine-2-carbonyl]pyrrolidine-2-carboxamide]", "values": [{"measurement": "Ki", "setting": "FXIIa", "result": "800 to 5000", "unit": "nM"}]}
